{"source": "patent US20150283145A1", "about": "“TREATMENT OF HYPERPROLIFERATIVE AND PRE-CANCEROUS SKIN DISEASES USING AN INHIBITOR OF CBP/CATENIN” (PRISM Pharma Co., Ltd., priority 2012, published 2015)", "key": {"[1]": {"test_system": "psoriasis tissue model (SOR-300-FT)", "test": "Tissue structure (H&E histology) of psoriasis tissue model", "format": "cell-based, human", "from_the_text": "(§1) The psoriasis tissue model (SOR-300-FT; MatTek Corp., Ashland, Mass.) is a highly differentiated in vitro psoriatic tissue comprised of normal, human-derived keratinocytes and psoriatic fibroblasts which have been cultured to form a highly differentiated model of psoriatic tissue. Morphologically, the psoriatic tissue is of uniform thickness and is very similar to native psoriatic tissue in that it expresses increased levels of Ki67+ cells (hyperproliferation) and psoriasis-associated proteins such as psoriasin, elafin and human beta-defensin-2 (HBD-2) (Am. J. Pathol. 173:815-23, 2008). SOR-300-FT tissues (surface area=0.6 cm^2) were cultured on microporous membrane (pore size=0.4 μm) cell culture inserts. All psoriatic tissues were grown at the air liquid interface (ALI) in which the apical tissue layer is exposed to air. Use of the ALI induces the tissues to attain skin-like differentiation and allows direct topical application of test materials (similar to in vivo exposure).\n(§2) Calcipotriol at 2.5, 0.25 and 0.025 μg/ml in medium was used as positive control. Ultrapure water was used as the vehicle control. The test article Compound C was applied to the basolateral (by additions to the culture medium) and apical (50 μl) side of the tissues. The effect of each three concentrations of the test article on tissue structure was examined using H&E stained histological slides. For gene analysis, RNA was isolated using standard RNA isolation protocol (MatTek Corporation). Isolated RNA was quantified and the integrity of the isolated RNA was checked. Quantitative RT-PCR was performed to determine expression levels of 5 psoriatic associated genes (elafin, HBD-2, psoriasin, p63, and Ki67).\n(§3) SOR-300-FT™ tissues were transferred to 6-well plates containing 0.9 ml of pre-warmed assay medium and equilibrated to standard culture conditions (37° C., 5% CO2) for 1 hour. After the 1 hr equilibration, the tissues were re-fed with fresh medium as follow: 1) for the 24 hr time point, tissues were feed with 0.9 ml of medium and 2) for time points >24 hr, tissues were fed with 5 ml of culture medium by placing the cell culture inserts on top of the washers (Part # EPI-WSHR, MatTek Corporation). Next, 50 μl of the test article was applied topically to the psoriatic tissues (n=3) and the test article was added to the culture medium at concentrations of 100 μM, 30 μM, and 5 μM. At times 48 and 72 hours: a) the tissues were rinsed topically 3× with 300-400 μL of PBS, b) the inserts containing the tissues were held tightly with sterile forceps and the test article was rinsed gently by immersing the insert into PBS and decant medium from insert and c) fresh test article was re-applied to the tissue immediately after rinsing and decanting (50 μl, topically). Analysis was performed at t=48 hr (2× repeat applications) and t=96 hr (4× applications).\n(§4) After t=48 (2× repeat exposure) and t=96 hr (4× exposure), N=3 tissues/treatment were used for RNA isolation for biomarker identification (gene expression levels). After the t=48 and t=96 hr, N=1 tissue/treatment was fixed in 10% formalin for histological analysis.\nMicroscopic observations of histology samples were performed and effect of treatment on tissue morphology such as apical surface disruption, structural changes, and abnormal tissue staining was assessed."}, "elafin gene expression": {"test_system": "elafin gene expression", "test": "qPCR elafin gene expression in psoriatic tissue model", "format": "cell-based, human", "from_the_text": "as §1, §2, §3, §4\n(§5) RNA Isolation: RNA was isolated from the tissues following MatTek's standardized RNA isolation protocol. The concentration, integrity, and purity of RNA was assessed using Experion System (Bio-Rad).\n(§6) qPCR: cDNA was generated using the RT2 First Strand Kit (Qiagen, cat#330401). Relative gene expression was measured using RT2 SYBR Green qPCR Mastermix (Qiagen, cat#330502) and Qiagen RT2 primers. Analysis was carried out using Bio-Rad CFX software.\n(§7) qPCR was performed to quantify the relative gene expression levels of 5 psoriatic associated gene biomarkers: 1) human beta defensin 2 (HBD-2), 2) psoriasin, 3) elafin and 4) p63, and 5) Ki67."}, "[2]": {"test_system": "human beta defensin 2 (HBD-2) gene expression", "test": "qPCR HBD-2 gene expression in psoriatic tissue model", "format": "cell-based", "from_the_text": "as §1, §2, §3, §4, §5, §6, §7"}, "[3]": {"test_system": "psoriasin gene expression", "test": "qPCR psoriasin gene expression in psoriatic tissue model", "format": "cell-based, human", "from_the_text": "as §1, §2, §3, §4, §5, §6, §7"}, "p63 gene expression": {"test_system": "p63 gene expression", "test": "qPCR p63 gene expression in psoriatic tissue model", "format": "cell-based, human", "settings": "for Downregulation of p63 gene: 2× or 4× repeat applications", "from_the_text": "as §1, §2, §3, §4, §5, §6, §7"}, "Ki67 gene expression": {"test_system": "Ki67 gene expression", "test": "qPCR Ki67 gene expression in psoriatic tissue model", "format": "cell-based, human", "settings": "for Downregulation of Ki67 gene: 2× or 4× repeat applications", "from_the_text": "as §1, §2\nas §3, with “applications). […]” for “applications).”\nas §5\nqPCR: cDNA was generated using the RT2 First Strand Kit (Qiagen, cat#330401). Relative gene expression was measured using RT2 SYBR Green qPCR Mastermix (Qiagen, cat#330502) and Qiagen RT2 primers. […]\nas §7"}, "[4]": {"settings": "0.025 ug/ml, 2× repeat applications"}, "[5]": {"settings": "0.025 ug/ml, 4× repeat applications"}, "[6]": {"settings": "2.5 μg/ml, 2× repeat applications"}, "[7]": {"settings": "2.5 μg/ml, 4× repeat applications"}, "[8]": {"settings": "0.25 ug/ml, 2× application, 48 hr"}}}
{"smiles": "C=C1/C(=C\\C=C2/CCC[C@]3(C)[C@@H]([C@H](C)/C=C/[C@@H](O)C4CC4)CC[C@@H]23)C[C@@H](O)C[C@@H]1O", "note": "[Calcipotriol, reference compound]", "values": [{"measurement": "Microscopic observation of tissue histology", "setting": "[1]; 2.5, 0.25 and 0.025 μg/ml, 2× or 4× repeat exposures", "value": "minimal-to-no evidence of structural damage"}, {"measurement": "Downregulation (≧2 fold) of elafin gene expression", "setting": "elafin gene expression; [4]", "value": "not after 2× repeat applications"}, {"measurement": "Downregulation of elafin gene expression", "setting": "elafin gene expression; [5]", "value": "≥ 2", "unit": "fold"}, {"measurement": "Downregulation of elafin gene expression", "setting": "elafin gene expression; [6]", "value": "≥ 2", "unit": "fold"}, {"measurement": "Reduction of elafin gene expression", "setting": "elafin gene expression; [7]", "value": "significant reduction"}, {"measurement": "Downregulation (≧2 fold) of HBD-2 gene expression", "setting": "[2]; [4]", "value": "not after 2× repeat applications"}, {"measurement": "Downregulation of HBD-2 gene expression", "setting": "[2]; [5]", "value": "≥ 2", "unit": "fold"}, {"measurement": "Downregulation of HBD2 gene expression", "setting": "[2]; [8]", "value": "≥ 2", "unit": "fold"}, {"measurement": "Downregulation of HBD-2 gene expression", "setting": "[2]; [6]", "value": "≥ 2", "unit": "fold"}, {"measurement": "Reduction of HBD-2 gene expression", "setting": "[2]; [7]", "value": "significant reduction"}, {"measurement": "Downregulation (≧2 fold) of psoriasin gene expression", "setting": "[3]; [4]", "value": "not after 2× repeat applications"}, {"measurement": "Downregulation of psoriasin gene expression", "setting": "[3]; [5]", "value": "≥ 2", "unit": "fold"}, {"measurement": "Downregulation of psoriasin gene expression", "setting": "[3]; [6]", "value": "≥ 2", "unit": "fold"}, {"measurement": "Reduction of psoriasin gene expression", "setting": "[3]; [7]", "value": "significant reduction"}, {"measurement": "Downregulation of p63 gene expression", "setting": "p63 gene expression; [8]", "value": "≥ 2", "unit": "fold"}, {"measurement": "Downregulation of p63 gene expression", "setting": "p63 gene expression; [6]", "value": "≥ 2", "unit": "fold"}, {"measurement": "Decrease of p63 gene expression", "setting": "p63 gene expression; [7]", "value": 1.7, "unit": "fold"}, {"measurement": "Downregulation of Ki 67 gene expression", "setting": "Ki67 gene expression; [6]", "value": "≥ 2", "unit": "fold"}, {"measurement": "Decrease of Ki67 gene expression", "setting": "Ki67 gene expression; [7]", "value": 1.6, "unit": "fold"}]}
{"smiles": "C[C@H]1[C@H]2N(C(=O)CN(C)N2C(=O)NCc2ccccc2)[C@@H](Cc2ccc(O)cc2)C(=O)N1Cc1cccc2cccnc12", "note": "[Compound C, (6S,9S,9aS)—N-benzyl-6-(4-hydroxybenzyl)-2,9-dimethyl-4,7-dioxo-8-(quinolin-8-ylmethyl)octahydro-1H-pyrazino[2,1-c][1,2,4]triazine-1-carboxamide]", "values": [{"measurement": "Microscopic observation of tissue histology", "setting": "[1]; 5 μM, 2× repeat exposures", "value": "minimal effect on tissue structure"}, {"measurement": "Basal cells and tissue regeneration (histology)", "setting": "[1]; 5 μM, 4× repeat exposures", "value": "the basal cells were intact and tissue regeneration was occurring"}, {"measurement": "Microscopic observation of tissue histology", "setting": "[1]; 5 μM, 4× repeat exposures", "value": "the parabasal-apical layer of the tissue was sloughed off"}, {"measurement": "Microscopic observation of tissue histology", "setting": "[1]; 30 μM, 2× repeat exposures, 48 hr", "value": "minor structural damage"}, {"measurement": "Microscopic observation of tissue histology", "setting": "[1]; 30 μM, 4× exposures, 96 hr", "value": "the suprabasal and apical layer was sloughed off"}, {"measurement": "Microscopic observation of tissue histology", "setting": "[1]; 100 μM, 2× or 4× repeat exposures", "value": "structural damage to the differentiated cell layer"}, {"measurement": "Downregulation of elafin gene expression", "setting": "elafin gene expression; 5 μM, 4× applications, 96 hr", "value": "≥ 2", "unit": "fold"}, {"measurement": "Downregulation of elafin gene expression", "setting": "elafin gene expression; 30 μM, 4× applications, 96 hr", "value": "≥ 2", "unit": "fold"}, {"measurement": "Reduction in elafin gene expression level", "setting": "elafin gene expression; 30 μM, 48 hr (2× applications)", "value": 2.2, "unit": "fold"}, {"measurement": "Downregulation of elafin gene expression", "setting": "elafin gene expression; 100 μM, 4× applications, 96 hr", "value": "≥ 2", "unit": "fold"}, {"measurement": "Downregulation of HBD-2 gene expression", "setting": "[2]; 5 μM, 4× applications, 96 hr", "value": "≥ 2", "unit": "fold"}, {"measurement": "Downregulation of HBD-2 gene expression", "setting": "[2]; 30 μM, 4× applications, 96 hr", "value": "≥ 2", "unit": "fold"}, {"measurement": "Downregulation of HBD-2 gene expression", "setting": "[2]; 100 μM, 4× applications, 96 hr", "value": "≥ 2", "unit": "fold"}, {"measurement": "Downregulation of psoriasin gene expression", "setting": "[3]; 5 μM, 4× applications, 96 hr", "value": "≥ 2", "unit": "fold"}, {"measurement": "Downregulation of psoriasin gene expression", "setting": "[3]; 30 μM, 4× applications, 96 hr", "value": "≥ 2", "unit": "fold"}, {"measurement": "Downregulation of psoriasin gene expression", "setting": "[3]; 100 μM, 4× applications, 96 hr", "value": "≥ 2", "unit": "fold"}, {"measurement": "Downregulation of p63 gene", "setting": "p63 gene expression; 5 μM", "value": "did not show downregulation"}, {"measurement": "Downregulation of p63 gene", "setting": "p63 gene expression; 30 μM", "value": "did not show downregulation"}, {"measurement": "Downregulation of the p63 gene", "setting": "p63 gene expression; 100 μM, 2× repeat applications", "value": 1.6, "unit": "fold"}, {"measurement": "Downregulation of Ki67 gene", "setting": "Ki67 gene expression; 5 μM", "value": "did not show downregulation"}, {"measurement": "Downregulation of Ki67 gene", "setting": "Ki67 gene expression; 30 μM", "value": "did not show downregulation"}, {"measurement": "Downregulation of Ki 67 gene expression", "setting": "Ki67 gene expression; 100 μM, 2× and 4× applications (FIGS. 4A-B)", "value": "No down regulation"}]}
